# Measurements as given in patent EP0202661B1, “Isolation of castanospermine and its use as an antidiabetic agent” (MERRELL DOW PHARMACEUTICALS INC., priority 1985, dated 1986).
# Legend:
# [1] = system: Starch-Administrated Mice; test: Inhibitory action against increase of blood glucose in starch-administered mice; assay type: in vivo, Male ICR-Swiss mice; settings: for Blood Glucose Concentration (mg%) at 45 min. After Starch: fasted mice, starch control (0 mg/kg) 126, blank 72
# Experimental: Inhibitory Action Against Increase of Blood Glucose in Starch-Administrated Mice
# (§1) Male ICR-Swiss mice with body weight of 25-35 g were fasted overnight. Starch was administered orally by gavage at a dose of 1 g/kg 15 minutes after the similar administration of castanospermine at doses of 1.9 to 60 mg/kg. Animals were sacrificed at 45 minutes after starch administration and blood glucose levels were measured by a method using glucose dehydrogenase. […]
# [2] = system: Sucrose-Administered Mice; test: Inhibitory action against increase of blood glucose in sucrose-administered mice; assay type: in vivo, Male ICR-swiss mice; settings: for Blood Glucose Concentration (mg%) at 30 Min. After Sucrose: fasted mice, sucrose control (0 mg/kg) 205, blank 107
# Experimental: Inhibitory Action Against Increase of Blood Glucose in Sucrose-Administered Mice
# as §1, with “Male ICR-swiss” for “Male ICR-Swiss”, “overnight. Sucrose” for “overnight. Starch”, “of 2” for “of 1”, “of 0.125” for “of 1.9”, “at 30” for “at 45”, “after sucrose” for “after starch”
# [3] = system: intestinal glycosidases (i.e., maltase and sucrase); settings: rats, cited from earlier work
compound,measurement,setting,value
"O[C@H]1[C@H](O)[C@@H](O)CN2CC[C@H](O)[C@H]12 [Castanospermine, (1S,6S,7R,8R,8aR)-1,6,7,8-tetrahydroxyindolizidine]",minimal effective dose,"[1]; Mus musculus, 0.75 h, oral gavage 15 min before starch 1 g/kg, blood glucose 45 min after starch, read-out: dose at which the increase in glucose in the blood could be significantly inhibited",≥ 3.8 mg/kg
same,Blood Glucose Concentration (mg%) at 45 min. After Starch,[1]; castanospermine 1.9 mg/kg oral gavage 15 min before starch 1 g/kg,139 mg%
same,Blood Glucose Concentration (mg%) at 45 min. After Starch,[1]; castanospermine 3.8 mg/kg oral gavage 15 min before starch 1 g/kg,83 mg%
same,Blood Glucose Concentration (mg%) at 45 min. After Starch,[1]; castanospermine 7.5 mg/kg oral gavage 15 min before starch 1 g/kg,85 mg%
same,minimal effective dose,"[2]; Mus musculus, 0.5 h, oral gavage 15 min before sucrose 2 g/kg, blood glucose 30 min after sucrose, read-out: dose at which the increase in glucose in the blood could be significantly inhibited",≥ 0.125 mg/kg
same,Blood Glucose Concentration (mg%) at 30 Min. After Sucrose,[2]; castanospermine 0.125 mg/kg oral gavage 15 min before sucrose 2 g/kg,159 mg%
same,Blood Glucose Concentration (mg%) at 30 Min. After Sucrose,[2]; castanospermine 0.25 mg/kg oral gavage 15 min before sucrose 2 g/kg,167 mg%
same,Blood Glucose Concentration (mg%) at 30 Min. After Sucrose,[2]; castanospermine 0.5 mg/kg oral gavage 15 min before sucrose 2 g/kg,153 mg%
same,Blood Glucose Concentration (mg%) at 30 Min. After Sucrose,[2]; castanospermine 1.0 mg/kg oral gavage 15 min before sucrose 2 g/kg,146 mg%
same,Blood Glucose Concentration (mg%) at 30 Min. After Sucrose,[2]; castanospermine 2.0 mg/kg oral gavage 15 min before sucrose 2 g/kg,116 mg%
same,"inhibition of intestinal glycosidases (i.e., maltase and sucrase)","[3]; administered by injection, Saul et al., Proc. Nat'l. Acad. Sci. USA, 82, 93 (1985)",inhibits intestinal glycosidases
same,adverse observations at high doses,"[3]; high doses administered by injection, Saul et al. (1985)",diarrhea and high levels of intestinal bacterial flora were observed
